According to US12110279B2, “Triazolones, tetrazolones, and imidazolones, or their salts, and pharmaceutical compositions comprising the same” (Yuhan Corporation, priority 2021, dated 2024):
Counter-ions that a name gives are not always drawn. Like-named read-outs stand apart in the source and are kept apart here.

Experiments:
Type in all cases: biochemical
recombinant human VAP-1 = biological target: T1, recombinant human VAP-1 (Homo sapiens, UniProt Q16853); assay: Amplex Red HRP-coupled amine oxidase activity evaluation, recombinant human VAP-1; conditions: substrate 1 mM benzylamine; 30 min preincubation at 37° C.; read-out: Inhibitory Activity (IC50, nM) human VAP-1
T1 construct: purchased R&D systems
T1 sequence (Q16853 1-763): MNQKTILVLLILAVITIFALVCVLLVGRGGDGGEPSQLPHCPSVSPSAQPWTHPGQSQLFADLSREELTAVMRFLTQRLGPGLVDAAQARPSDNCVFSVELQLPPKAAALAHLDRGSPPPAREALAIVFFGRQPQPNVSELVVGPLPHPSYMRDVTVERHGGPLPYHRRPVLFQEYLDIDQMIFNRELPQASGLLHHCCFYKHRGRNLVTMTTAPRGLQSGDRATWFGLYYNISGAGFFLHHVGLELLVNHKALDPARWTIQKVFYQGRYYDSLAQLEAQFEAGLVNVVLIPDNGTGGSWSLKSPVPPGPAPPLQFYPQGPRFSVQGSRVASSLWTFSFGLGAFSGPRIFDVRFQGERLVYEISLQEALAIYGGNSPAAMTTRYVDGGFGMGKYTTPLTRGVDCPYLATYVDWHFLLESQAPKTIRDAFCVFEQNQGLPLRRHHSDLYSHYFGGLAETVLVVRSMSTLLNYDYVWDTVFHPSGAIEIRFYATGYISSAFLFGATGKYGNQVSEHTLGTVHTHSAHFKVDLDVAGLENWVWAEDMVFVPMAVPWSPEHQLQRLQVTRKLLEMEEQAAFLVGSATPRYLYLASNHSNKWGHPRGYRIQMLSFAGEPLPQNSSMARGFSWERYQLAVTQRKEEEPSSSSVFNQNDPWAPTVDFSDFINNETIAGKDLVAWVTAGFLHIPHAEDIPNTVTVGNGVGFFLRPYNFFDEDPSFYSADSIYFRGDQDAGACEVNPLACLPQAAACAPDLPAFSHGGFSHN
How it was run: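 Inhibition is scored as the % drop in resorufin signal rate relative to uninhibited DMSO control and fitted to a 4-parameter logistic curve for IC50. VAP-1 and compound are preincubated 30 min at 37° C before benzylamine substrate (1 mM in the added mix) is introduced.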

[1] = biological target: T2, recombinant human MAO-A (monoamine oxidase-A) (Homo sapiens, UniProt P21397); assay: Amplex Red HRP-coupled amine oxidase activity evaluation, recombinant human MAO-A; conditions: substrate 0.5 mM tyramine; read-out: Inhibitory Activity (IC50, nM) MAO-A
T2 construct: purchased Sigma-Aldrich
T2 sequence (P21397 1-527): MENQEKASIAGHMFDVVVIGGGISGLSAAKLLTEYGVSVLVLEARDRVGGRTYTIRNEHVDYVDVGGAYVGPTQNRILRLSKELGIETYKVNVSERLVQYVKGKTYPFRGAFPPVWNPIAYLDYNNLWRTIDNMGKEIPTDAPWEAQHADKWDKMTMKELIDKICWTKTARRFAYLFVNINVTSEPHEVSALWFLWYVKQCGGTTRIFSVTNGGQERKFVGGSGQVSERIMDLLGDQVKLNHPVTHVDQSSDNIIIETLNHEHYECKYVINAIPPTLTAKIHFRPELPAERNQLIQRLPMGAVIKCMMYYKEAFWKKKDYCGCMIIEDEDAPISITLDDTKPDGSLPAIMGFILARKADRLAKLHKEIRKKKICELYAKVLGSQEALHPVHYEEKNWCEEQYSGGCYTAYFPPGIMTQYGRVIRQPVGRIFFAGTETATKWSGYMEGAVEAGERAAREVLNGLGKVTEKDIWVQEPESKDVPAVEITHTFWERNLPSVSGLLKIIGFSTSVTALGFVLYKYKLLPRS

[2] = biological target: T3, recombinant human MAO-B (monoamine oxidase-B) (Homo sapiens, UniProt P27338); assay: Amplex Red HRP-coupled amine oxidase activity evaluation, recombinant human MAO-B; conditions: substrate 1 mM benzylamine; read-out: Inhibitory Activity (IC50, nM) MAO-B
T3 construct: purchased Sigma-Aldrich
T3 sequence (P27338 1-520): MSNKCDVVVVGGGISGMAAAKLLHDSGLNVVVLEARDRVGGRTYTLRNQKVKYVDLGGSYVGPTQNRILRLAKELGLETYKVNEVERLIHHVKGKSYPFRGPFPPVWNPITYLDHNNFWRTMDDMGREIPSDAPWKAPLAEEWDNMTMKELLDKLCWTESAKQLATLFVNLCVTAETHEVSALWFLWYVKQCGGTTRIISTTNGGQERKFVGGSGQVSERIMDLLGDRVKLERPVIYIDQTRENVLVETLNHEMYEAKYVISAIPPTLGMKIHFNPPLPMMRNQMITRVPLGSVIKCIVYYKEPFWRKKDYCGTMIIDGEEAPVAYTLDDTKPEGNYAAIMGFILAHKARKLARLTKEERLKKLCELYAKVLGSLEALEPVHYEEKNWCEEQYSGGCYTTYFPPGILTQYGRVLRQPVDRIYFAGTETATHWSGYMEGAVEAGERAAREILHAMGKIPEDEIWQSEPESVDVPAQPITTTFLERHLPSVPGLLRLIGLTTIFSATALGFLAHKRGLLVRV

[3] = biological target: T4, recombinant human DAO (diamine oxidase) (Homo sapiens, UniProt P19801); assay: Amplex Red HRP-coupled amine oxidase activity evaluation, recombinant human DAO
T4 construct: purchased R&D systems
T4 sequence (P19801 20-751): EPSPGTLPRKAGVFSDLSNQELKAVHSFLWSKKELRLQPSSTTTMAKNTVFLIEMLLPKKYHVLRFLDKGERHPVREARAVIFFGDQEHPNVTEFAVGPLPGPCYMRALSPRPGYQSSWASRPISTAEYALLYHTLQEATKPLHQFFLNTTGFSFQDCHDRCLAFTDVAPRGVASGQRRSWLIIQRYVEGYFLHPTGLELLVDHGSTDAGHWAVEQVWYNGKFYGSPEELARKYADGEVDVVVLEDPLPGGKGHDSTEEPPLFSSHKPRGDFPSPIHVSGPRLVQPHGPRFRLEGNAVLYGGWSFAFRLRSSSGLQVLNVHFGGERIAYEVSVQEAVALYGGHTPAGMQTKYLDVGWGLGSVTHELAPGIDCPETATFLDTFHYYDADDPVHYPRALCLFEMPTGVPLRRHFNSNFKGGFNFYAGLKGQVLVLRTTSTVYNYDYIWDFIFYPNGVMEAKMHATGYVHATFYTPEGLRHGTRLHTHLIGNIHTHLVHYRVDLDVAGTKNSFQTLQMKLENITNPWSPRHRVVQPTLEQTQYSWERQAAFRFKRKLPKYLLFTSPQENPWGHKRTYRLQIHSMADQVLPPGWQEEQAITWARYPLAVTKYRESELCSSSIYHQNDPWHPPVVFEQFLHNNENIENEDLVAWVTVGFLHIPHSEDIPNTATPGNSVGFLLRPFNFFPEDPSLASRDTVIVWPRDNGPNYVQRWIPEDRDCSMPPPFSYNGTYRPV

| IC50 (recombinant human VAP-1) [nM] | IC50 [1] [nM] | IC50 [2] [nM] | IC50 [3] [nM] | IC50 ([3]; substrate 1 mM putrescine, read-out: Inhibitory Activity (IC50, nM) DAO) [nM] | Structure (SMILES) |
| --- | --- | --- | --- | --- | --- |
| 13 | > 100000 | > 100000 | 1110 |  | Cc1ccc(-c2cc(C)c3c(c2)CCC(=O)N3)nc1-n1nnn(CC(CN)=C(F)F)c1=O [Example 25, 6-[6-[4-[2-(aminomethyl)-3,3-difluoro-allyl]-5-oxo-tetrazol-1-yl]-5-methyl-2-pyridyl]-8-methyl-3,4-dihydro-1H-quinolin-2-one trifluoroacetate] |
| 0.6 | 82100 | 9000 |  | 127 | Cc1cc(-c2cccc(Cn3nnn(CC(CN)=C(F)F)c3=O)c2)cc2c1NC(=O)CC2 [Example 31, 6-[3-[[4-[2-(aminomethyl)-3,3-difluoro-allyl]-5-oxo-tetrazol-1-yl]methyl]phenyl]-8-methyl-3,4-dihydro-1H-quinolin-2-one trifluoroacetate] |
